Measurements as given in PubChem BioAssay AID652053 (Broad Institute, 2013).

Each compound was assayed on Huh7 psiCHECK-miR122 Renilla luciferase reporter, 48 h (assay: suppression of miR-122 activity, Renilla luciferase sensor – cell-based, Huh7 psiCHECK-miR122, cherry-pick, dose response (AID 652053)).
For `CCn1cc(S(=O)(=O)CC(=O)Nc2ccc(C)cc2)c2ccccc21`, the AC40 was 15.1 µM. In the case of `COc1ccc(C)cc1S(=O)(=O)Nc1cc2c3c(c1)CCC(=O)N3CCC2`, the AC40 is reported as 1.86 µM. Work on `CC(C)(C)NS(=O)(=O)c1ccc2[nH]c3c(c2c1)CCCCC3` yielded an AC40 of 5.04 µM. `COc1ccccc1NS(=O)(=O)c1cc(N/C(=N/S(=O)(=O)c2ccccc2)c2ccc(F)cc2)ccc1Cl` gave an AC40 of 3.27 µM. In the case of `O=S(=O)(NCc1cccs1)c1cccc(S(=O)(=O)N2CCCCC2)c1`, the AC40 is reported as 6.72 µM. `O=S(=O)(NCc1cccnc1)c1ccc(Cl)c2ccccc12` gave an AC40 of 4.69 µM. With `CN(C)Cc1ccccc1CNC(=O)c1cccc(S(=O)(=O)Nc2ccc3c(c2)OCO3)c1` the AC40 was 2.15 µM. With `CCOc1ccc(C)cc1S(=O)(=O)NC1CCCCC1` the AC40 was 0.575 µM. `O=S(=O)(Nc1cccc(-c2cn3ccsc3n2)c1)c1ccc(F)cc1` was tested, and the AC40 was 6.48 µM. In the case of `CCN(CC)S(=O)(=O)c1ccc(N2CCOCC2)c(NS(=O)(=O)c2ccc(C(C)C)cc2)c1`, the AC40 is reported as 5.51 µM. Compound `O=C(Cc1ccccc1)N1C[C@@H]2[C@H](c3ccccc31)[C@@H](CO)N2C(=O)Nc1ccc(F)cc1` has an AC40 of 2.61 µM. `C/C(=N\NC(=O)c1ccccc1O)C1C(=O)c2ccccc2C1=O` was tested, and the AC40 was 18.1 µM. With `CCN(CC)c1ccc(S(=O)(=O)Nc2cc(Cl)ccc2Cl)cc1NC(=S)NC(=O)C1CCCC1` the AC40 was 7.34 µM. `CCN(CC)c1ccc(NC(=O)COc2ccccc2C#N)cc1S(=O)(=O)Nc1ccccc1OC` showed an AC40 of 0.325 µM. `CCOC(=O)c1cc(S(=O)(=O)Nc2cccc(OC)c2)cn1C` gave an AC40 of 1.84 µM. `CCCC(=O)Nc1ccc2c(c1)C(=O)N(C)[C@H]1CC[C@@H](CC(=O)NCc3cccc(F)c3)O[C@H]1CO2` gave an AC40 of 0.762 µM. `Cc1cccc(S(=O)(=O)NC2CCCCCCC2)c1` showed an AC40 of 3.27 µM. `CC(C)(C)NS(=O)(=O)c1ccc(NC(=S)NC(=O)C2CC2)cc1` was tested, and the AC40 was 1.86 µM. Compound `CCOc1cc(C)c(S(=O)(=O)Nc2ccc(Cl)cn2)cc1C` has an AC40 of 4.04 µM. `COc1ccc(S(=O)(=O)Nc2cc(C)c(O)c(S(=O)(=O)c3ccccc3)c2)cc1` showed an AC40 of 29.6 µM. `C[C@@H]1CN([C@H](C)CO)C(=O)Cc2cc(N(C)C)ccc2O[C@H]1CN(C)Cc1ccc(C(=O)Nc2ccccc2N)cc1` gave an AC40 of 10.3 µM. Work on `O=C(Nc1ccc(S(=O)(=O)NCCc2ccccc2)cc1)c1ccco1` yielded an AC40 of 2.02 µM. `C[C@@H]1CN([C@@H](C)CO)C(=O)c2cc(NC(=O)Nc3ccccc3)ccc2O[C@@H]1CN(C)Cc1ccc(C(=O)Nc2ccccc2N)cc1` was tested, and the AC40 was 13.4 µM. `Cc1cc(C)c(S(=O)(=O)NCCCn2ccnc2)cc1C` showed an AC40 of 1.45 µM. `Clc1ccc2[nH]cc(-c3nnnn3-c3ccc4ccccc4c3)c2c1` was tested, and the AC40 was 6.75 µM. `CCc1ccc(-c2cc(C)no2)cc1S(=O)(=O)NCc1ccco1` showed an AC40 of 1.61 µM. Compound `Cc1ccc(S(=O)(=O)Nc2ccc3c(c2)C(=O)N([C@@H](C)CO)C[C@H](C)[C@H](CN(C)C(=O)Nc2ccc(F)cc2)OCCCC[C@@H](C)O3)cc1` has an AC40 of 1.86 µM. Work on `Cc1ccc(S(=O)(=O)Nc2cccc(-c3ccc4nncn4n3)c2)cc1` yielded an AC40 of 9.35 µM. With `COc1ccc(C)cc1S(=O)(=O)Nc1ccc(F)cc1` the AC40 was 1.04 µM. With `COc1ccc(S(=O)(=O)N(C)C[C@H]2Oc3cc(C#CC4CCCC4)ccc3S(=O)(=O)N([C@H](C)CO)C[C@@H]2C)cc1` the AC40 was 1.58 µM. Work on `C/C(=N\NC(=O)c1cccc(S(=O)(=O)Nc2cccc(Cl)c2)c1)c1cccs1` yielded an AC40 of 3.3 µM. In the case of `O=C(Nc1cc(S(=O)(=O)Nc2ccccc2F)ccc1Cl)c1ccc(F)cc1F`, the AC40 is reported as 7.6 µM. Compound `COc1ccc(S(=O)(=O)NCc2ccccn2)cc1NC(=O)c1ccccc1C` has an AC40 of 10.2 µM. Work on `COc1cccc(C(=O)N2C[C@H]3[C@@H](c4ccccc42)[C@@H](CO)N3C(=O)c2ccc(F)cc2)c1` yielded an AC40 of 2.16 µM. Work on `COc1ccc(S(=O)(=O)Nc2ccc(F)cc2)cc1N(C)S(=O)(=O)c1ccc(Cl)cc1` yielded an AC40 of 4.94 µM. Work on `Cc1cc(C)c(C)c(S(=O)(=O)NC2CCN(Cc3ccccc3)CC2)c1C` yielded an AC40 of 9.53 µM. In the case of `O=S(=O)(c1ccccc1)N1C[C@H]2[C@@H](c3ccccc31)[C@@H](CO)N2Cc1ccc2c(c1)OCO2`, the AC40 is reported as 8.56 µM. For `Cc1ccc(C(C)C)cc1S(=O)(=O)NCc1ccccn1`, the AC40 was 1.38 µM. `Cc1ccc(S(=O)(=O)Nc2ccc3c(c2)CC(=O)N([C@H](C)CO)C[C@H](C)[C@H](CN(C)Cc2ccc(C(=O)Nc4ccccc4N)cc2)O3)cc1` was tested, and the AC40 was 6.79 µM. With `O=S1(=O)c2ccc(Br)cc2N2CCC[C@H]2CN1Cc1ccccc1` the AC40 was 34.9 µM. `Cc1cc(NS(=O)(=O)c2ccccc2)cc(Cl)c1O` showed an AC40 of 21.1 µM. With `Cc1sc(NC(=O)c2ccccc2)c(C(c2ccc(Cl)cc2)N2CCN(CCO)CC2)c1C` (stereo unspecified) the AC40 was 22.3 µM. `CCOC(=O)C1CCCCN1C(=O)c1cc2ccc(OC)cc2c2cc(OC)c(OC)cc12` (stereo unspecified) showed an AC40 of 4.65 µM. Work on `OC(c1cc(Cl)cc(Cl)c1)c1ncc(-c2ccccc2F)[nH]1` (stereo unspecified) yielded an AC40 of 3.84 µM. `Nc1c(S(=O)(=O)c2cc(Cl)ccc2Cl)c2nc3ccccc3nc2n1CCN1CCOCC1` gave an AC40 of 6.22 µM. Work on `COc1ccccc1NS(=O)(=O)c1cc(NC(=S)NCC2CCCO2)ccc1C` (stereo unspecified) yielded an AC40 of 3.52 µM. With `Cc1cccc(C(=O)Nc2cccc(S(=O)(=O)NCc3ccco3)c2)c1` the AC40 was 3.29 µM. `Cc1ccc(NS(=O)(=O)c2cccc3nsnc23)cc1C` was tested, and the AC40 was 4.13 µM. Work on `O=S(=O)(Nc1ccccc1)c1ccc(-c2cnc(C3CC3)o2)cc1` yielded an AC40 of 8.92 µM. Compound `CCOc1ccccc1N(CC(=O)Nc1cccnc1)S(=O)(=O)c1ccc(C)cc1` has an AC40 of 8.03 µM. Compound `COc1ccccc1CNS(=O)(=O)c1ccc(-c2cc(C)no2)cc1` has an AC40 of 10.8 µM. `CN1c2ccc(-c3cccc(F)c3)cc2[C@H]2[C@H](CCN2C(=O)c2ccccc2F)[C@H]1CO` gave an AC40 of 0.528 µM. Work on `CC(C)CC(=O)Nc1cccc(-c2nc3ccccc3[nH]2)c1` yielded an AC40 of 15.6 µM. Work on `COc1ccc(S(=O)(=O)N(CC(=O)Nc2cc(C)on2)Cc2ccccc2)cc1` yielded an AC40 of 21.3 µM. For `COc1ccc(N(C(=O)c2ccncc2)S(=O)(=O)c2ccc3c4c(cccc24)C(=O)N3C)cc1`, the AC40 was 7.01 µM. Work on `CCC(C)c1ccc(NC(=S)NCc2cccs2)cc1` (stereo unspecified) yielded an AC40 of 10.1 µM. Compound `C[C@@H]1CN([C@H](C)CO)C(=O)c2cc(NC(=O)Nc3ccccc3)ccc2O[C@@H]1CN(C)S(=O)(=O)c1ccc(Cl)cc1` has an AC40 of 5.33 µM. Work on `O=C1c2ccccc2C2=Nc3ccccc3SC(c3ccccc3F)C12` (stereo unspecified) yielded an AC40 of 21 µM. In the case of `CCOc1ccc(-c2cc(N)n(S(=O)(=O)c3ccc(OC)c(OC)c3)n2)cc1`, the AC40 is reported as 4.11 µM. In the case of `COC(=O)c1c(NC(=O)c2ccc(C)c(S(=O)(=O)Nc3ccccc3C)c2)sc2c1CCCC2`, the AC40 is reported as under 0.26 µM. In the case of `COc1ccccc1S(=O)(=O)Nc1cccc(S(=O)(=O)N2CCCC2)c1`, the AC40 is reported as 1.26 µM. With `COc1ccc(NC(C)=O)cc1S(=O)(=O)Nc1ccc(S(=O)(=O)N2CCCCC2)cc1` the AC40 was 2.62 µM. `COc1ccc(S(=O)(=O)Nc2ccc3c(c2)C(=O)N([C@@H](C)CO)C[C@H](C)[C@H](CN(C)C(=O)Nc2ccccc2)OCCCC[C@@H](C)O3)cc1` gave an AC40 of 29.6 µM. With `CC1CCCC(NS(=O)(=O)c2ccc3c(c2)OCCO3)C1C` (stereo unspecified) the AC40 was 3.1 µM. Compound `CCOc1ccc(S(=O)(=O)NCCN2CCOCC2)c2ccccc12` has an AC40 of 1.14 µM. `C[C@H](CO)N1C[C@H](C)[C@H](CN(C)Cc2ccc3c(c2)OCO3)Oc2c(NC(=O)C3CCOCC3)cccc2C1=O` gave an AC40 of 10.5 µM. Work on `COc1ccc(C(C)(C)C)cc1S(=O)(=O)n1ccnc1C` yielded an AC40 of 4.82 µM. In the case of `Cc1noc(C)c1S(=O)(=O)N(C)C[C@@H]1Oc2c(NC(=O)C3CCOCC3)cccc2C(=O)N([C@@H](C)CO)C[C@@H]1C`, the AC40 is reported as 4.51 µM. `Cc1ccc(NS(=O)(=O)c2cc(C(=O)NCc3ccccn3)ccc2Cl)cc1C` gave an AC40 of 2.91 µM. `COc1ccccc1NC(=S)NCC1CCCCC1` showed an AC40 of 8.17 µM. For `C[C@@H]1CN([C@@H](C)CO)C(=O)c2cccc(NC(=O)c3ccncc3)c2O[C@@H]1CN(C)C`, the AC40 was 12 µM.
